Measurements reported in PubChem BioAssay (NCI).
Where “and” joins values, the source holds several entries; their conditions need not be identical. Identical values can stand only once.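 The compound was tested at five concentrations on cells cultured in 96-well plates, with a 48-hour exposure period. GI50 is the concentration that inhibits growth by half. TGI: total growth inhibition.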

Experiments:
Test in all cases: NCI tumour cell line growth inhibition, 48 h
A498 renal = tested on: A498 renal
HCT-15 colon = tested on: HCT-15 colon
NCI-H226 lung = tested on: NCI-H226 lung
NCI-H460 lung = tested on: NCI-H460 lung
RPMI-8226 leukemia = tested on: RPMI-8226 leukemia
SK-MEL-5 melanoma = tested on: SK-MEL-5 melanoma
SNB-75 CNS = tested on: SNB-75 CNS
UACC-257 melanoma = tested on: UACC-257 melanoma
CAKI-1 renal = tested on: CAKI-1 renal
RXF 393 renal = tested on: RXF 393 renal

SMILES	GI50 (A498 renal)	TGI (A498 renal)	GI50 (HCT-15 colon)	TGI (HCT-15 colon)	GI50 (NCI-H226 lung)	TGI (NCI-H226 lung)	GI50 (NCI-H460 lung)	TGI (NCI-H460 lung)	GI50 (RPMI-8226 leukemia)	TGI (RPMI-8226 leukemia)	GI50 (SK-MEL-5 melanoma)	TGI (SK-MEL-5 melanoma)	GI50 (SNB-75 CNS)	TGI (SNB-75 CNS)	GI50 (UACC-257 melanoma)	TGI (UACC-257 melanoma)	GI50 (CAKI-1 renal)	TGI (CAKI-1 renal)	GI50 (RXF 393 renal)	TGI (RXF 393 renal)
Cc1cc(N2CCCC2)nc(N(CCCNc2ccnc3cc(Cl)ccc23)Cc2ccc3c(c2)OCO3)n1	2440 nM	7500 nM	805 nM	5820 nM	5200 nM	33800 nM	1290 nM	4340 nM	322 nM	1720 nM	1530 nM	2900 nM	1540 nM	4330 nM	1840 nM	3470 nM				
N#CC1C(N)=NNC12Nc1ccccc1N2 (centres undefined)			31400 nM	> 100000 nM			13600 nM	38100 nM	2910 nM	7800 nM	4110 nM	21200 nM	24800 nM	> 100000 nM			11700 nM	74500 nM	335 nM	7270 nM
CC(C)[C@@H](COC(C)(C)C)N=CN1CCc2c([nH]c3ccccc23)C1		> 100000 nM		> 100000 nM		> 100000 nM		> 100000 nM		> 100000 nM		> 100000 nM		> 100000 nM						> 100000 nM
CC(=O)OC1C2(CC3N4C(=O)C5(CO)SSC4(CC31O)C(=O)N5C)OC(C)C(C)(C)C2=O (centres undefined)	35.2 nM	71.7 nM	< 10 nM	< 19.7 nM	14.2 nM	55.3 nM	< 48.5 nM	217 nM	< 39.8 nM		38.9 nM	94.7 nM			224 nM	651 nM	1880 nM	3860 nM	47.3 nM	151 nM
CCCCCc1c(C)[nH]c(/C=C2\N=C(c3ccc[nH]3)C=C2Oc2ccc(Cl)cc2)c1C	134 nM and 33 nM	3330 nM and 609 nM	77.9 nM and 28.7 nM	1460 nM and 1050 nM			54.5 nM and 24 nM	12000 nM	60.2 nM and 16.3 nM	1230 nM and 1570 nM	27 nM and 23.4 nM	76.2 nM and 81.8 nM	112 nM and 37.5 nM	553 nM and 431 nM	280 nM and 70.6 nM	3000 nM and 2780 nM	148 nM and 34.3 nM	542 nM and 312 nM	67.8 nM and 123 nM	672 nM and 722 nM
CCCCC[C@H]1C/C=C2/C(=O)C(Cl)=C[C@@H]2C/C=C\CCCC(=O)O[C@@H](CCCCC)C/C=C2/C(=O)C(Cl)=C[C@@H]2C/C=C\CCCC(=O)O1	465 nM	1410 nM	490 nM	1850 nM	380 nM	860 nM	405 nM	1020 nM	188 nM	973 nM	325 nM	659 nM	544 nM	3890 nM	366 nM	932 nM			297 nM	576 nM
S=c1ssc(Sc2ccccn2)c1Cl			5260 nM	18100 nM	23000 nM	58800 nM	15200 nM	28500 nM	1560 nM	4140 nM	3740 nM	15300 nM	23300 nM	56800 nM	22200 nM	57900 nM	17600 nM	31400 nM	16900 nM	32600 nM
